Test results published in patent US4898861A, “Method for inhibiting the proliferation of tumor cells” (Hoffmann-La Roche Inc., priority 1988, dated 1990).
Read-outs that look alike come from different tables or passages of the source.

Assays:
[1] = target: T1, peripheral-type benzodiazepine sites on FEL cells (Mus musculus, UniProt P50637); assay: Inhibition of binding of 7-chloro-5-(4-chlorophenyl)-1,3-dihydro-1-methyl-2H-1,4-benzodiazepine-2-one to FEL cells
T1 construct: endogenous in cells; host or cells: DS 19 Friend erythroleukemia cell line (FEL)
T1 sequence (P50637 whole entry): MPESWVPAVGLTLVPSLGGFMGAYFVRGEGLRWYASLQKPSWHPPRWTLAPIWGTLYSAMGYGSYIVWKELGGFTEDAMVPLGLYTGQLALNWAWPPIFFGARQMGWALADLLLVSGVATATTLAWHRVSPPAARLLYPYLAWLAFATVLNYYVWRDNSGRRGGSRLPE
From the text: (§1) Of twenty five (25) of the benzodiazepines tested it was observed that sixteen induced differentiation (weakly to strongly active) in a concentration-dependent manner. The concentration of each compound required to induce 50%, 20% or 10% of the FEL cells along with the half-maximal concentrations for each compound required to inhibit 50% of the binding of 7-chloro-5-(4-chlorophenyl)-1,3-dihydro-1-methyl-2H-1,4-benzodiazepine-2-one to the FEL cells (IC50) is listed in the following table: […]

[2] = system: DS 19 Friend erythroleukemia cell line (FEL); assay: Induction of differentiation of FEL cells (hemoglobin synthesis, benzidine staining); assay type: cell-based, mouse; settings: for EC50 / EC20 / EC10: Mus musculus, 120 h, 5 days; for EC50: read-out: ED50 (concentration required to induce 50% of the FEL cells); for EC20: read-out: ED20 (concentration required to induce 20% of the FEL cells); for EC10: read-out: ED10 (concentration required to induce 10% of the FEL cells)
Protocol: A DS 19 Friend erythroleukemia cell line (FEL) was utilized as the model for studying the effects of various benzodiazepines on cellular differentiation. The Friend lines were derived from mouse (DBA/2) spleen cells infected by the Friend virus complex. The FEL cells are a widely used model system for studying differentiation. […] The protocol utilized consisted of the benzidine staining method. Cells were seeded at 1×10^4 ml and incubated with inducers in Coster Culture Clusters ([…]) for 5 days. On the 5th day, two hundred (200) μl aliquots of cells were mixed with 100 μl of 0.2% benzidine dihydrochloride in 0.5N acetic acid with 1% of 30% H2 O2. Cells that stained blue were scored in a hemacytometer as a % of total cell number.
as §1

[3] = system: Swiss 3T3 cells; settings: Clarke and Ryan, Nature 287, 160-161 (1980), read-out: ED50 (inhibition of proliferation); cited from earlier work
[4] = target: T2, peripheral binding site on thymoma cells (Mus musculus, UniProt P50637); assay: Inhibition of tritiated diazepam binding to thymoma cells
T2 construct: host or cells: AKR mouse thymoma line BW 5147.6.1.4.Oua^r.1; (washed cells in BGS buffer)
T2 sequence (P50637 whole entry): as above

[5] = target: T2, peripheral binding site on thymoma cells; assay: Binding of tritiated 7-chloro-5-(4-chlorophenyl)-1,3-dihydro-1-methyl-2H-1,4-benzodiazepin-2-one to thymoma cells (saturation, association, dissociation)
Protocol: Thymoma cells, AKR mouse thymoma line, BW 5147.6.1.4.Oua^r.1.(Cell Distribution Center, Salk Institute, San Diego, Calif.), were grown in Iscove's Modified Dulbecco's Medium (IMDM) containing 5 percent fetal calf serum, collected by centrifugation at 100×g and washed in Balanced Glucose Salt (BGS) buffer, the composition of which is: KCl, 5.0 mM; NaCl, 120.0 mM; Na2 HPO4, 5.0 mM; Tris, 5.0 mM; CaCl2, 0.6 mM; MgSO4, 1.0 mM and glucose, 5.5 mM with a final pH of 7.4. Incubation and binding of tritiated 7-chloro-5-(4-chlorophenyl)-1,3-dihydro-1-methyl-2H-1,4-benzodiazepin-2-one to thymoma cells was carried out in BGS buffer at 0° C. for 40 minutes with the indicated concentrations of labeled ligand. To assay the binding, the rapid filtration method was utilized as outlined in the article of Taniguchi et al., Life Science, 27, 171-178 (1980) and 10 μM of unlabeled diazepam was used as the competitive inhibitor of binding to determine the nonspecific binding. A Saturation and Scratchard plot of the binding data using least square fit to define the regression line (r=0.97) was utilized (FIG. 1 and Insert).

[6] = FEL cells, compounds 1-12, read-out: IC50 (inhibition of binding to FEL cells)
[7] = FEL cells, compounds 13-16, in μM, read-out: IC50 (inhibition of binding to FEL cells)
[8] = stereoisomers, equivalent IC50's, read-out: IC50

Compound | IC50 [1, 6] | EC50 [2] | EC20 [2] | further results
CN1C(=O)CN=C(c2ccccc2)c2ccccc21 [Compound 6, 1,3-dihydro-1-methyl-5-phenyl-2H--1,4-benzodiazepin-2-one] | 0.704 µM | 80000 nM |  | 
CN1C(=O)CN=C(c2ccc(Cl)cc2)c2cc(F)ccc21 [Compound 7, 5-(4-chlorophenyl)-7-fluoro-1-methyl-3H--1,4-benzodiazepin-2(1H)--one] | 0.013 µM |  | 34000 nM | 
CN1C(=O)CN=C(c2ccc(Cl)cc2)c2cc([N+](=O)[O-])ccc21 [Compound 14, 5-(4-chlorophenyl)-1-methyl-7-nitro-3H--1,4-benzodiazepin-2(1H)--one] |  |  |  | IC50 [1, 7]: 0.034 µM; EC10 [2]: 60000 nM
C[C@H]1N=C(c2ccccc2F)c2cc([N+](=O)[O-])ccc2N(C)C1=O [Compound 9, (-)-5-(2-fluorophenyl)-1,3-dihydro-1,3-dimethyl-7-nitro-2H--1,4-benzodiazepin-2-one] | 1.04 µM |  | 86000 nM | IC50 [1, 8]: ~1 µM; induction of differentiation (in words) [2]: moderately active
CN1C(=O)C(O)N=C(c2ccccc2)c2cc(Cl)ccc21 (stereo not drawn) [Compound 5, 7-chloro-1,3-dihydro-3-hydroxy-1-methyl-5-phenyl-2H--1,4-benzodiazepin-2-one] | 0.236 µM | 80000 nM |  | 
CN1C(=O)CN=C(c2ccccc2F)c2cc([N+](=O)[O-])ccc21 [Compound 13, 5-(2-fluorophenyl)-1,3-dihydro-1-methyl-7-nitro-2H--1,4-benzodiazepin-2-one] |  |  |  | IC50 [1, 7]: 0.08 µM; EC10 [2]: 32000 nM
CN1C(=O)C(O)N=C(c2ccc(Cl)cc2)c2cc(Cl)ccc21 (stereo not drawn) [Compound 11, 7-chloro-5-(4-chlorophenyl)-3-hydroxy-1,3-dihydro-1-methyl-2H--1,4-benzodiazepin-2-one] | 0.02 µM |  | 45000 nM | 
COc1ccc(C2=NCC(=O)N(C)c3ccc(Cl)cc32)cc1 [Compound 3, 7-chloro-5-(4-methoxyphenyl)-1-methyl-3H--1,4-benzodiazepin-2-one] | 0.015 µM | 33000 nM |  | 
CN1C(=O)CN=C(c2ccccc2Cl)c2ccccc21 [Compound 15, 5-(2-chlorophenyl)-1-methyl-3H--1,4-benzodiazepin-2(1H)--one] |  |  |  | IC50 [1, 7]: 0.175 µM; EC10 [2]: 60000 nM
CN1C(=O)CN=C(c2ccc(F)cc2)c2ccccc21 [Compound 12, 1-methyl-5-(4-fluorophenyl)-3H--1,4-benzodiazepin-2(1H)--one] | 0.327 µM |  | 100000 nM | 
CN1C(=O)CN=C(c2ccccc2)c2cc(Cl)ccc21 [Compound 4, diazepam, reference compound] |  | 55000 nM |  | IC50 ([1]; IC50 (inhibition of binding to FEL cells), FEL cells, compounds 1-12): 0.079 µM; IC50 [3]: ~30000 nM
CN1C(=O)CN=C(c2ccccc2Cl)c2cc(Cl)ccc21 [Compound 16, 7-chloro-5-(2-chlorophenyl)-1,3-dihydro-1-methyl-2H--1,4-benzodiazepin-2-one] |  |  |  | IC50 [1, 7]: 0.011 µM; EC10 [2]: 60000 nM
O=C1CN=C(c2ccccc2Cl)c2cc([N+](=O)[O-])ccc2N1 [clonazepam, reference compound] |  |  |  | inhibition of tritiated diazepam binding ([4]; 10 μM final concentration): did not inhibit diazepam binding
CN1C(=O)CN=C(c2ccc(Cl)cc2)c2cc(Cl)ccc21 [Compound 10, 7-chloro-5-(4-chlorophenyl)-1,3-dihydro-1-methyl-2H--1,4-benzodiazepin-2-one] | 0.006 µM |  | 28000 nM | inhibition of tritiated diazepam binding ([4]; 200 nM unlabeled compound): completely inhibit the binding of tritiated diazepam
CN1C(=O)CN=C(c2ccc(Cl)cc2)c2ccccc21 [Compound 8, 5-(4-chlorophenyl)-1-methyl-3H--1,4-benzodiazepin-2(1H)--one] | 0.054 µM |  | 30000 nM | 
CN1C(=O)CN=C(c2ccc(Cl)cc2)c2cc(Cl)ccc21 [7-chloro-5-(4-chlorophenyl)-1,3-dihydro-1-methyl-2H-1,4-benzodiazepin-2-one] |  |  |  | Kd [5]: 4.4 ± 1.1 nM; time of incubation to reach binding plateau ([5]; 0° C.): 30 min; maximum amount of ligand bound (Bmax) ([5]; saturation plot, BGS buffer, 0° C., 40 minutes, mean±s.e., n=5): 477±98 fmoles per 10^6 cells
CN1C(=O)CN=C(c2ccc(O)cc2)c2cc(Cl)ccc21 [Compound 2, 7-chloro-1,3-dihydro-5-(4-hydroxyphenyl)-1-methyl-2H--1,4-benzodiazepin-2-one] | 0.1 µM | 20000 nM |  | 
C[C@@H]1N=C(c2ccccc2F)c2cc([N+](=O)[O-])ccc2N(C)C1=O [Compound 1, (+)-5-(2-fluorophenyl)-1,3-dihydro-1,3-dimethyl-7-nitro-2H--1,4-benzodiazepin-2-one] | 1.1 µM | 9000 nM |  | IC50 [1, 8]: ~1 µM; induction of differentiation (in words) [2]: most potent inducer tested
